The first assay addresses T1, HCV NS3/4A protease complex (UniProt P27958, C1454S/C1711G, species not given).
T1 construct: fused on or other part: Three-lysine solubilising tail at the C-terminus of NS4A
Description: Recombinant HCV NS3/4A protease complex FRET peptide assay (strain not stated). The class given is biochemical. Conditions: HCV NS3/4A protease enzyme assay, read-out: IC50 range. The source says:
Recombinant HCV NS3/4A Protease Complex FRET Peptide Assay
The purpose of this in vitro assay was to measure the inhibition of HCV NS3 protease complexes, derived from the BMS, H77C or J416S strains, as described below, by compounds of the present invention. This assay provides an indication of how effective compounds of the present invention would be in inhibiting HCV proteolytic activity.
Serum from an HCV-infected patient was obtained from Dr. T. Wright, San Francisco Hospital. An engineered full-length cDNA (compliment deoxyribonucleic acid) template of the HCV genome (BMS strain) was constructed from DNA fragments obtained by reverse transcription-PCR (RT-PCR) of serum RNA (ribonucleic acid) and using primers selected on the basis of homology between other genotype 1a strains. From the determination of the entire genome sequence, a genotype 1a was assigned to the HCV isolate according to the classification of Simmonds et al. (See P Simmonds, K A Rose, S Graham, S W Chan, F McOmish, B C Dow, E A Follett, P L Yap and H Marsden, J. Clin. Microbiol., 31(6), 1493–1503 (1993)). […] The infectious clones, H77C (1a genotype) and J4L6S (1b genotype) were obtained from R. Purcell (NIH) and the sequences are published in Genbank (AAB67036, see Yanagi, M., Purcell, R. H., Emerson, S. U. and Bukh, J. Proc. Natl. Acad. Sci. U.S.A. 94(16),8738–8743 (1997); AF054247, see Yanagi, M., St Claire, M., Shapiro, M., Emerson, S. U., Purcell, R. H. and Bukh, J, Virology 244 (1), 161–172. (1998)).
The BMS, H77C and J4L6S strains were used for production of recombinant NS3/4A protease complexes. DNA encoding the recombinant HCV NS3/4A protease complex (amino acids 1027 to 1711) for these strains were manipulated as described by P. Gallinari et al. (see Gallinari P, Paolini C, Brennan D, Nardi C, Steinkuhler C, De Francesco R. Biochemistry. 38(17):5620–32, (1999)). Briefly, a three-lysine solubilizing tail was added at the 3′-end of the NS4A coding region. The cysteine in the P1 position of the NS4A-NS4B cleavage site (amino acid 1711) was changed to a glycine to avoid the proteolytic cleavage of the lysine tag. Furthermore, a cysteine to serine mutation was introduced by PCR at amino acid position 1454 to prevent the autolytic cleavage in the NS3 helicase domain. The variant DNA fragment was cloned in the pET21b bacterial expression vector (Novagen) and the NS3/4A complex was expressed in Escherichia. coli strain BL21 (DE3) (Invitrogen) following the protocol described by P. Gallinari et al. (see Gallinari P, Brennan D, Nardi C, Brunetti M, Tomei L, Steinkuhler C, De Francesco R., J. Virol. 72(8):6758–69 (1998)) with modifications. Briefly, NS3/4A expression was induced with 0.5 mM Isopropyl β-D-1-thiogalactopyranoside (IPTG) for 22 hr at 20° C. A typical fermentation (10L) yielded approximately 80 g of wet cell paste. The cells were resuspended in lysis buffer (10 mL/g) consisting of 25 mM N-(2-Hydroxyethyl)Piperazine-N′-(2-Ethane Sulfonic acid) (HEPES), pH7.5, 20% glycerol, 500 mM Sodium Chloride (NaCl), 0.5% Triton-X100, 1 ug/ml lysozyme, 5 mM Magnesium Chloride (MgCl2), lug/ml Dnasel, 5 mM β-Mercaptoethanol (βME), Protease inhibitor—Ethylenediamine Tetraacetic acid (EDTA) free (Roche), homogenized and incubated for 20 mins at 4° C. The homogenate was sonicated and clarified by ultra-centrifugation at 235000 g for 1 hr at 4° C. Imidazole was added to the supernatant to a final concentration of 15 mM and the pH adjusted to 8.0. The crude protein extract was loaded on a Nickel-Nitrilotriacetic acid (Ni-NTA) column pre-equilibrated with buffer B (25 mM HEPES, pH 8.0, 20% glycerol, 500 mM NaCl, 0.5% Triton-X100, 15 mM imidazole, 5 mM βME). The sample was loaded at a flow rate of 1 mL/min. The column was washed with 15 column volumes of buffer C (same as buffer B except with 0.2% Triton-X100). The protein was eluted with 5 column volumes of buffer D (same as buffer C except with 200 mM Imidazole). […]
As for `C=CC1C[C@]1(NC(=O)[C@@H]1C[C@@H](OC(=O)Nc2c(CC)cccc2C(C)C)CN1C(=O)[C@@H](NC(=O)OC(C)(C)C)C(C)(C)C)C(=O)NS(=O)(=O)C1CC1` (stereo partly drawn) [Compound 22, BocNH-P3(t-BuGly)-P2(Hyp(O—CO(NH—(2-ethyl-6-isopropyl-phenyl))))-P1(1R,2S VinylAcca)—CONHSO2Cyclopropane], the IC50 fell in the range of 1 to 10 µM.

For `C=CC1C[C@]1(NC(=O)[C@@H]1C[C@@H](OC(=O)Nc2c(C)cccc2C)CN1C(=O)[C@@H](NC(=O)OC(C)(C)C)C(C)(C)C)C(=O)NS(=O)(=O)C1CC1` (stereo partly drawn) [Compound 58, BocNH-P3(t-BuGly)-P2(Hyp(O—CO(NH—(2,6-dimethyl-phenyl))))-P1(1R,2S VinylAcca)—CONHSO2Cyclopropane], the IC50 lay within 1 to 10 µM.

As to `C=CC1C[C@]1(NC(=O)[C@@H]1C[C@@H](OC(=O)Nc2c(C)cccc2CC)CN1C(=O)[C@@H](NC(=O)OC(C)(C)C)C(C)(C)C)C(=O)NS(=O)(=O)C1CC1` (stereo partly drawn) [Compound 61, BocNH-P3(t-BuGly)-P2(Hyp(O—CO(NH—(2-ethyl-6-methyl))))-P1(1R,2S VinylAcca)—CONHSO2Cyclopropane], the IC50 is 1 to 10 µM.

As to `C=CC1C[C@]1(NC(=O)[C@@H]1C[C@@H](OC(=O)Nc2c(C)nn(C)c2C)CN1C(=O)[C@@H](NC(=O)OC(C)(C)C)C(C)(C)C)C(=O)NS(=O)(=O)C1CC1` (stereo partly drawn) [Compound 68, BocNH-P3(t-BuGly)-P2(Hyp(O—CO(NH—(1,3,5-Trimethyl-pyrazol-4-yl))))-P1(1R,2S VinylAcca)—CONHSO2Cyclopropane], the IC50 lay within 1 to 10 µM.

`C=CC1CC1(NC(=O)[C@@H]1C[C@@H](OC(=O)Nc2c(F)cccc2F)CN1C(=O)[C@@H](NC(=O)OC(C)(C)C)C(C)(C)C)C(=O)O` (stereo partly drawn) [Compound 102, BocNH-P3(t-BuGly)-P2(Hyp(O—CO(NH—(2,6-difluoro-phenyl))))-P1((1R,2S)/(1S,2R) VinylAcca)—CO2H]: the IC50 is over 10 µM.

With `C=CC1CC1(NC(=O)[C@@H]1C[C@@H](OC(=O)NCc2ccccc2C)CN1C(=O)[C@@H](NC(=O)OC(C)(C)C)C(C)(C)C)C(=O)O` (stereo partly drawn) [Compound 103, BocNH-P3(t-BuGly)-P2(Hyp(O—CO(NH—(2-methyl-benzyl))))-P1((1R,2S)/(1S,2R) VinylAcca)—CO2H], the IC50 was over 10 µM.

For the molecule `C=CC1CC1(NC(=O)[C@@H]1C[C@@H](OC(=O)N[C@H](C(=O)OC)[C@@H](C)CC)CN1C(=O)[C@@H](NC(=O)OC(C)(C)C)C(C)(C)C)C(=O)O` (stereo partly drawn) [Compound 104, BocNH-P3(t-BuGly)-P2(Hyp(O—CO(NH-2-[(2S,3S)-3-methylvaleric acid methyl ester])))-P1((1R,2S)/(1S,2R) VinylAcca)—CO2H], the IC50 lay in the range of 1 to 10 µM.

Consider `C=CC1CC1(NC(=O)[C@@H]1C[C@@H](OC(=O)NC(C)c2cccc3ccccc23)CN1C(=O)[C@@H](NC(=O)OC(C)(C)C)C(C)(C)C)C(=O)O` (stereo partly drawn) [Compound 105, BocNH-P3(t-BuGly)-P2(Hyp(O—CO(NH-1-(R)-1-naphthylethyl)))-P1((1R,2S)/(1S,2R) VinylAcca)—CO2H], for which the IC50 is over 10 µM.

As to `C=CC1CC1(NC(=O)[C@@H]1C[C@@H](OC(=O)Nc2ccccc2)CN1C(=O)[C@@H](NC(=O)OC(C)(C)C)C(C)(C)C)C(=O)O` (stereo partly drawn) [Compound 106, BocNH-P3(t-BuGly)-P2(Hyp(O—CO(NH-phenyl)))-P1((1R,2S)/(1S,2R) VinylAcca)—CO2H], the IC50 was over 10 µM.

Turning to `C=CC1CC1(NC(=O)[C@@H]1C[C@@H](OC(=O)Nc2cc(C)ccc2F)CN1C(=O)[C@@H](NC(=O)OC(C)(C)C)C(C)(C)C)C(=O)O` (stereo partly shown) [Compound 107], the IC50 was over 10 µM.

With `C=CC1CC1(NC(=O)[C@@H]1C[C@@H](OC(=O)NCCc2cccs2)CN1C(=O)[C@@H](NC(=O)OC(C)(C)C)C(C)(C)C)C(=O)O` (stereo partly drawn) [Compound 108, BocNH-P3(t-BuGly)-P2(Hyp(O—CO(NH—(2-thiophen-2-yl-ethyl))))-P1((1R,2S)/(1S,2R) VinylAcca)—CO2H], the IC50 was over 10 µM.

As for `C=CC1CC1(NC(=O)[C@@H]1C[C@@H](OC(=O)Nc2cccc(C(F)(F)F)c2)CN1C(=O)[C@@H](NC(=O)OC(C)(C)C)C(C)(C)C)C(=O)O` (stereo partly drawn) [Compound 109, BocNH-P3(t-BuGly)-P2(Hyp(O—CO(NH—(3-trifluoromethyl-phenyl))))-P1((1R,2S)/(1S,2R) VinylAcca)—CO2H], the IC50 was over 10 µM.

Still in this assay, the particulars now being: read-out: IC50 range, HCV NS3/4A protease enzyme assay.
Turning to `C=CC1C[C@]1(NC(=O)[C@@H]1C[C@@H](OC(=O)Nc2c(CC)cccc2CC)CN1C(=O)[C@@H](NC(=O)OC(C)(C)C)C(C)(C)C)C(=O)NS(=O)(=O)C1CC1` (stereo partly drawn) [Compound 62, BocNH-P3(t-BuGly)-P2(Hyp(O—CO(NH—(2,6-diethyl-phenyl))))-P1(1R,2S VinylAcca)—CONHSO2Cyclopropane], the IC50 is 1 to 10 µM.

These data come from patent publication US7041698B2, “Hepatitis C virus inhibitors” (Bristol-Myers Squibb Company, priority 2002, dated 2006).
